Reference: patent US11168089B2, “Fused pyrimidine derivatives as A2A / A2B inhibitors” (Incyte Corporation, priority 2018, dated 2021)

Experiments:
[1] = target: human adenosine A2B receptor (Homo sapiens (Human), UniProt P29275); experiment: Adenosine A2B Receptor Cyclic AMP GS Assay; type: cell-based; conditions: HEK-293 cells expressing human A2B receptor, agonist NECA 12 nM, cAMP accumulation; read-out: A2B_cAMP_EC50
Procedure: Example B. Adenosine A2B Receptor Cyclic AMP GS Assay
Stably transfected HEK-293 cells expressing the human adenosine A2B receptor (Perkin Elmer) were maintained in MEM culture medium with 10% FBS and 100 μg/mL Geneticin (Life Technologies). 18 to 24 hours prior to assay, geneticin was removed from culture. The cisbio cAMP-GS Dynamic kit utilizing the FRET (Fluorescence Resonance Energy Transfer) technology was used to measure cAMP accumulation in the cells. Compounds of the present disclosure at an appropriate concentration were mixed with 10000 cells/well in white 96 well half area plates (Perkin Elmer) for 30 min at room temperature gently shaking. Agonist, NECA (R&D Technologies) at 12 nM was added to each well for 60 min at room temperature gently shaking. Detection reagents, d2-labeled cAMP (acceptor) and anti-cAMP cryptate (donor) were added to each well for 60 min at RT gently shaking. Plates were read on Pherastar (BMG Labtech), fluorescence ratio 665/620 was calculated and EC50 determination was performed by fitting the curve of percent of control versus the log of the compound concentration using GraphPad Prism.

Adenosine A2A receptor = Adenosine A2A receptor (Homo sapiens (Human), UniProt P29274); experiment: A2A Tag-Lite HTRF assay; type: binding; conditions: Tag-Lite Adenosine A2A labeled cells, displacement of A2A Receptor Red antagonist fluorescent ligand 12.5 nM; read-out: A2A_Ki
From the text: Example C. A2A Tag-Lite® HTRF Assay
The final concentration of DMSO was 1%.

Chain of Adenosine A2A receptor (P29274 whole entry): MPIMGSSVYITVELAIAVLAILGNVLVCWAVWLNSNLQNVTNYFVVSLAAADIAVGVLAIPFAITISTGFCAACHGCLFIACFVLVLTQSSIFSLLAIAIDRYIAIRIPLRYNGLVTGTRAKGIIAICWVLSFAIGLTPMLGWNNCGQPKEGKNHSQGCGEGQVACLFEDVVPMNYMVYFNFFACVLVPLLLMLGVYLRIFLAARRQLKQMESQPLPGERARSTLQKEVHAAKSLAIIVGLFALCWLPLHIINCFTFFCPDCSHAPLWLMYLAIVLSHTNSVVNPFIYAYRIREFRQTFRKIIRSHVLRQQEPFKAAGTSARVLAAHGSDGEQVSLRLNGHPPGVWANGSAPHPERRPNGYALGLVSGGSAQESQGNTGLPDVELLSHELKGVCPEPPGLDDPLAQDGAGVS
Chain of human adenosine A2B receptor (P29275 whole entry): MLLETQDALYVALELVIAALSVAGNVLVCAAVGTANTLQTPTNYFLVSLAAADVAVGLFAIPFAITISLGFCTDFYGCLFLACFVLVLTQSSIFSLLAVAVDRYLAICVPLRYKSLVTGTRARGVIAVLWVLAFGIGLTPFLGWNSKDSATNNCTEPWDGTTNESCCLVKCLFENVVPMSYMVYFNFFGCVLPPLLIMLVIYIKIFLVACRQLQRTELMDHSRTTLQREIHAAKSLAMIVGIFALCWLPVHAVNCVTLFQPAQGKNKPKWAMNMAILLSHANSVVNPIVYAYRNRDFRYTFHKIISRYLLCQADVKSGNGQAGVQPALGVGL

Compound | EC50 [1] [nM] | Ki (Adenosine A2A receptor) [nM]
Cn1ccnc1Cc1nc2cc(-c3cccc(C#N)c3)nc(N)n2n1 [Example 7, 3-(5-Amino-2-((1-methyl-1H-imidazol-2-yl)methyl)-[1,2,4]triazolo[1,5-c]pyrimidin-7-yl)benzonitrile] | 10 to 100 | < 10
N#Cc1cccc(-c2cc3nc(C(N)c4ccccc4)nn3c(N)n2)c1 (stereo not drawn) [Example 8, 3-(5-Amino-2-(amino(phenyl)methyl)-[1,2,4]triazolo[1,5-c]pyrimidin-7-yl)benzonitrile] | 100 to 1000 | < 10
CCN(Cc1cccc(F)c1C(O)c1nc2cc(-c3cccc(C#N)c3F)nc(N)n2n1)[C@H]1CCNC1=O (stereo partly drawn) [Example 18, 3-(5-Amino-2-((2-((ethyl((S)-2-oxopyrrolidin-3-yl)amino)methyl)-6-fluorophenyl)(hydroxy)methyl)-[1,2,4]triazolo[1,5-c]pyrimidin-7-yl)-2-fluorobenzonitrile] | < 10 | < 10
N#Cc1cccc(-c2cc3nc(Cc4ccccc4)nn3c(N)n2)c1 [Example 2, 3-(5-Amino-2-benzyl-[1,2,4]triazolo[1,5-c]pyrimidin-7-yl)benzonitrile] | < 10 | < 10
N#Cc1cccc(-c2cc3nc(CC4CCCCC4)nn3c(N)n2)c1 [Example 4, 3-(5-Amino-2-(cyclohexylmethyl)-[1,2,4]triazolo[1,5-c]pyrimidin-7-yl)benzonitrile] | 100 to 1000 | < 10
CCNC(=O)c1nc2cc(-c3cccc(C#N)c3)nc(N)n2n1 [Example 12, 5-Amino-7-(3-cyanophenyl)-N-ethyl-[1,2,4]triazolo[1,5-c]pyrimidine-2-carboxamide] | > 1000 | < 10
CCN(Cc1cccc(F)c1Cc1nc2cc(-c3cccc(C#N)c3F)nc(N)n2n1)C1CCN(C)C1=O (stereo not drawn) [Example 31, 3-(5-Amino-2-(2-((ethyl(1-methyl-2-oxopyrrolidin-3-yl)amino)methyl)-6-fluorobenzyl)-[1,2,4]triazolo[1,5-c]pyrimidin-7-yl)-2-fluorobenzonitrile] | < 10 | < 10
N#Cc1cccc(-c2nc(N)n3nc(C(O)c4c(F)cccc4F)nc3c2C#N)c1F (stereo not drawn) [Example 15, 5-Amino-7-(3-cyano-2-fluorophenyl)-2-((2,6-difluorophenyl)(hydroxy)methyl)-[1,2,4]triazolo[1,5-c]pyrimidine-8-carbonitrile] | < 10 | < 10

Continued, values first:

EC50 [1] [nM] | Ki (Adenosine A2A receptor) [nM] | Compound
10 to 100 | < 10 | CC(=O)N[C@H]1CCN(Cc2cccc(F)c2Cc2nc3cc(-c4cccc(C#N)c4F)nc(N)n3n2)C1 [Example 25, (S)—N-(1-(2-((5-Amino-7-(3-cyano-2-fluorophenyl)-[1,2,4]triazolo[1,5-c]pyrimidin-2-yl)methyl)-3-fluorobenzyl)pyrrolidin-3-yl)acetamide]
10 to 100 | < 10 | N#Cc1cccc(-c2cc3nc(NCc4cccc(-c5cnn(CCN6CCOCC6)c5)n4)nn3c(N)n2)c1F [Example 34, 3-(5-Amino-2-(((6-(1-(2-morpholinoethyl)-1H-pyrazol-4-yl)pyridin-2-yl)methyl)amino)-[1,2,4]triazolo[1,5-c]pyrimidin-7-yl)-2-fluorobenzonitrile]
10 to 100 | < 10 | CN1CCC(NCc2cccc(F)c2C(O)c2nc3cc(-c4cccc(C#N)c4F)nc(N)n3n2)C1=O (single isomer, unassigned) [Example 16, 3-(5-Amino-2-((2-fluoro-6-(((1-methyl-2-oxopyrrolidin-3-yl)amino)methyl)phenyl)(hydroxy)methyl)-[1,2,4]triazolo[1,5-c]pyrimidin-7-yl)-2-fluorobenzonitrile]
10 to 100 | < 10 | CCN1CCC(NCc2cccc(F)c2Cc2nc3cc(-c4cccc(C#N)c4F)nc(N)n3n2)C1=O (stereo not drawn) [Example 24, 3-(5-Amino-2-(2-(((1-ethyl-2-oxopyrrolidin-3-yl)amino)methyl)-6-fluorobenzyl)-[1,2,4]triazolo[1,5-c]pyrimidin-7-yl)-2-fluorobenzonitrile]
